Measurements: a melting point compilation (Tetko et al.; mined from patent text by program, amines drawn as free bases though some values may be those of a salt)

Row | SMILES | melting point [°C]
1 | CCOC(=O)c1ccc2c(c1)CCC(Cc1cnc(N)s1)C2 (stereo not drawn) | 150 to 153
2 | CNc1sc2c(c1C(=O)c1ccccc1)CCCC2 | 128 to 130
3 | CCOC(=O)CCCNC1N=C(c2ccccc2Cl)c2c(cn(C)c2C)N(C)C1=O (stereo not drawn) | 105 to 107
4 | CC(=O)NCn1cc(-c2nc(Nc3ccccn3)sc2C)cn1 | 175
5 | COc1ccc(-c2nc3cnccc3[nH]2)c(OC(C)C)c1 | 220
6 | N#Cc1cccc(CSc2nnc(-c3ccn4ncnc4c3)o2)c1 | 196 to 197
7 | O=S(=O)(O)c1ccc2nc(NC3=NCCN3)[nH]c2c1 | > 360
8 | CNC(=O)c1ccc(N2CCN(Cc3cc4c(c(OC)c3)OC(C)C(=O)N4)CC2)c(Cl)c1 (stereo not drawn) | 200 to 203
9 | CC(=O)Nc1sc2c(c1C(=O)c1ccco1)CCCC2 | 126 to 127
10 | COc1cc(C)c([N+](=O)[O-])cc1F | 95 to 95.5
11 | N#Cc1c(=O)[nH]c2cc(Cl)c(Cl)cc2[n+]1[O-] | 294 to 296
12 | COc1cc(C(=O)Cc2ccc(O)cc2)c(O)cc1O | 157 to 159
13 | Fc1cc(F)cc(Cn2cnnc2S)c1 | 129 to 130
14 | CCc1cccc2c1N(CC(=O)N1CC3CCC(CC3)C1)C(=O)C(NC(=O)Nc1cccc(-c3nnn[nH]3)c1)N=C2c1ccccc1F (stereo not drawn) | 226 to 232
15 | COC(=O)Cc1cccc2c1NC(=O)C2 | 156 to 157
16 | COC(=O)Cc1c(F)cccc1Cl | 79 to 80
17 | CC(=O)Nc1ccc(S(=O)(=O)CCN2CCOCC2)cc1 | 136 to 137
18 | Cc1cc([N+](=O)[O-])c(NCC(C)O)c([N+](=O)[O-])c1 (stereo not drawn) | 80
19 | COc1ccc2c(c1)CCC1C2CCC2(C)C(=NN(C)C)C(C)CC12 (stereo not drawn) | 122 to 124
20 | Cc1cc(F)ccc1-c1cnccn1 | 66 to 68
21 | COc1cccc2c(=O)c(C(N)=O)coc12 | 229 to 231
22 | CCOCc1nc2c(N)nc3c(c2n1NCCCNC(C)=O)CCCC3 | 198 to 200
23 | COC(=O)C1CCC2C3CCC4CC5OC5CC4(C)C3C(NC(=O)OCC(Cl)(Cl)Cl)CC12C (stereo not drawn) | 153 to 155

Row | SMILES | melting point [°C]
24 | COCCOc1cc2c(Nc3ccc(Sc4nccn4C)c(Cl)c3)c(C#N)cnc2cc1N1CCC(N2CCCC2)CC1 | 238 to 241
25 | Nc1nc(N)nc(OCc2ccccc2)n1 | 184 to 185
26 | CN1CCN(c2cccc3c2C[C@H](N(C)C(=O)c2ccc(C(F)(F)F)cc2)CC3)CC1 | 123 to 125
27 | NCC(=O)OCc1ccc([N+](=O)[O-])cc1 | 45 to 50
28 | CC1=C(/C=C/C(C)=C/C=C/C(C)=C\C(=O)O)C(C)(C)C(O)CC1 (stereo not drawn) | 152 to 154
29 | O=C(NCCO)/C(=C/c1ccc(OC2CC2)cc1)NC(=O)c1ccc(OCCC2CC2)cc1 | 132 to 134
30 | Cc1ccc(NC(=O)c2cc(Cl)ccc2NCC2CCN(C3CCCC3)CC2)nc1 | 150 to 152
31 | CC(C)(C)OC(=O)N1CC(CO)c2c1cc([N+](=O)[O-])c1ccccc21 (stereo not drawn) | 176
32 | CO/C(=C\C=C\c1cc2cc(Cl)c(Cl)cc2[nH]1)C(=O)NC1CC(C)(C)N(C)C(C)(C)C1 | 212
33 | Cc1ccc(C(=O)O)c(NS(C)(=O)=O)c1 | 202 to 205
34 | O=C1CCCC(=O)C1C(=O)c1ccc(Cl)c(OCCn2cnnn2)c1Cl | 46 to 54
35 | Cn1c(C(F)(F)F)c(C#N)c2cc(Cl)ccc21 | 166 to 168
36 | CC(C)Cn1nnc2cc3c(=O)n(C(C)Cn4ncnn4)nnc3cc2c1=O (stereo not drawn) | 132 to 134
37 | c1ccc2c(c1)CCc1c-2noc1N1CCNCC1 | 97 to 99
38 | CC(C)(CCCCCCCCCCOCc1ccccc1)C(=O)O | 53 to 55
39 | COC(=O)CCc1c(C(C)C)cc(C(C)C)cc1C(C)C | 45 to 47
40 | Clc1ccccc1-c1nc2occn2c1-c1ccnc(N[C@H]2CN3CCC2CC3)n1 | 132 to 134
41 | O=C(COc1cccc(CCNS(=O)(=O)c2ccc(Br)cc2)c1)Nc1nnn[nH]1 | 205 to 206
42 | CCCCNC(=O)N1N=C(c2ccc([N+](=O)[O-])cc2)c2cc(Cl)ccc2CC1C (stereo not drawn) | 150
43 | COc1ccc(/C(=C/C=C/C(=O)Oc2ccc([N+](=O)[O-])cc2)C2CCCCC2)cc1 | 117 to 119
44 | CC(Cc1cccc([N+](=O)[O-])c1)NC=O (stereo not drawn) | 99 to 100
45 | CSc1ccc(C)cc1S(=O)(=O)NC(C)(C)C | 119 to 121
46 | CN(C)CCNC(=O)N1CCN(c2ccc(F)cc2)CC1 | 99 to 101

The remaining lines, values ahead:

Row | melting point [°C] | SMILES
47 | 171 to 172 | COCCOc1cc(/C=C/C(=O)O)n(Cc2ccc(Cl)cc2Cl)n1
48 | 275 to 277 | CC(C)c1cccc(C(C)C)c1NC(=O)CN1C(=O)N(c2ccccc2)C2(CCCC2)C1=O
49 | 163 to 164 | COc1cc(CCCC2SC(=O)NC2=O)cc(OC)c1OCc1coc(/C=C/c2ccccc2)n1 (stereo not drawn)
50 | 122 | O=C(Nc1ccc2ncccc2c1)OCc1ccccc1
51 | 49.8 to 51.3 | C[C@H](Cc1ccc(-c2cc(F)cc(F)c2)cc1)c1ccccc1
52 | 195 to 198 | CN1C(=O)N(c2c(Cl)cccc2Cl)Cc2cnc(NCc3ccccc3)nc21
53 | 234 | Clc1ccc2c(c1)C(c1ccccc1Cl)=CCc1nnc(Br)n1-2
54 | 90 | O=c1cnn(-c2ccc(C(c3ccc(Cl)cc3)c3nc(-c4ccccc4)cs3)c(Cl)c2)c(=O)[nH]1 (stereo not drawn)
55 | 85 to 89 | CN(C)c1ccc(NC(=O)C(CS)Cc2ccccc2)cc1C(=O)O (stereo not drawn)
56 | 203 to 205 | N#Cc1ccccc1NC(=O)c1ccc(-n2nc(C(F)(F)F)cc2C(F)(F)F)cc1
57 | 212 | CCOC(=O)Nc1ccc(N2N=C(C)C(=CNc3ccccc3OC)C2=O)cc1
58 | 161 to 164 | c1ccc(C2Nc3ccccc3N3CCc4cccc2c43)cc1 (stereo not drawn)
59 | 98 to 100 | CCCCC1=NC(C)(C)C(=O)N1Cc1ccc(-c2ccccc2C(=O)OC(C)(C)C)cc1
60 | 166 to 167 | O=c1c2cccnc2c(-c2ccccc2)cn1Cc1ccccc1
61 | 257 to 259 | Nc1nc2ccccc2c2c1ncn2Cc1ccccc1
62 | 166 | CCOC(=O)COc1ccc(OCc2ccccc2)cc1C(Nc1ccc(C(N)=S)cc1)C(=O)OCC (racemic)
63 | 110 to 112 | Cc1cccc(C(Nc2ccccc2)P(=O)(Oc2ccccc2)Oc2ccccc2)n1 (stereo not drawn)
64 | 135 to 136 | CCc1c(C(F)(F)F)nn(-c2ccc(S(N)(=O)=O)cc2)c1-c1ccc(OC)c(C)c1
65 | 142 to 144 | CC(C)c1cccc(-c2c(-c3ccc4nn(C)cc4c3)nsc2NC(=O)[C@@H]2C[C@H]2C)n1
66 | 219 to 220 | Fc1ccc(-c2cc(Cn3cnc4c(Cl)nc5ccccc5c43)on2)cc1
67 | 67 to 72 | CC(CCCc1ccccc1)Oc1cc(O)c2c(c1)CC(C)(C)CC2CC(N)=O (stereo not drawn)
68 | 218 to 220 | COc1cc(C#N)c2nc(-c3ccc(OC)c(F)c3)cc(O)c2c1
69 | 96 to 97 | CC(=O)N[C@@H](Cc1ccc2ccccc2c1)C(=O)OCc1cc(C)cc(C)c1
70 | 193 to 195 | COc1ccc(C(=O)NCc2cccc3c2C(=O)N(C2CCC(=O)NC2=O)C3=O)cc1 (stereo not drawn)
71 | 56 to 58 | Cc1cc(OC(F)F)nc(NC(=O)Oc2ccccc2)n1
72 | 152 to 154 | CCOC(=O)c1cn(-c2ccc(F)cc2F)c2c(F)c(F)c(F)c(C)c2c1=O

Row | melting point [°C] | SMILES
73 | 158 to 160 | Cc1oc(-c2ccc(F)cc2)nc1CCOc1ccc(CN(O)C(N)=O)cc1
74 | 97 | N=c1sc2cc(OC(F)(F)F)ccc2n1CCS(=O)C1CCN(Cc2ccccc2)CC1 (stereo not drawn)
75 | 337 to 339 | Cc1cccc2oc(Nc3ccc(CC(=O)O)cc3)nc12
76 | 144 to 146 | COc1ccc(-c2ccc3nnn(Cc4ccc5ncccc5c4)c3n2)cc1
77 | 149 to 151 | CCN(CC)c1ccc(C2(c3ccc(N(CC)CC)cc3N(CC)CC)OC(=O)c3ccccc32)c(C)c1 (stereo not drawn)
78 | 162 to 165 | Cc1ccc2c(c1)N(CC(=O)c1ccccc1C)C(=O)C(NC(=O)Nc1cccc(C(=O)O)c1)CN2C(=O)C(C)C (stereo not drawn)
79 | 235 to 236 | O=C(NCc1cccnc1)c1cc(-n2cnn(Cc3ccc(F)cc3)c2=O)[nH]n1
80 | 259 to 261 | COc1cccc2c1nc(C(F)F)n2-c1nc(-c2ccc(N)nc2)nc(N2CCOCC2)n1
81 | 169 to 172 | CN(C)C1(c2ccccc2Cl)C(=O)Nc2ccc(Cl)cc21 (stereo not drawn)
82 | 129 to 130 | Cc1cc(Oc2ncc(C(F)(F)F)cc2Cl)nn1C(=O)Nc1cccc(Cl)c1
83 | 108 to 111 | Cc1cc(C)c(-n2ccc3c(OC(C)C)nn(C)c(=O)c32)c(C)c1
84 | 204 to 210 | O=C(O)c1ccc2c(c1)Sc1ccc(F)cc1C(O)C2 (stereo not drawn)
85 | 46 to 49 | CCCCCCCCCCCCCCOc1ccc(CN(C(C)=O)c2ccc(CBr)cc2)cc1
86 | 194 to 195 | CC(=O)c1ccc(-c2ccc(C(=O)Nc3ccc4cc(CN5CCCC5)cnc4c3C)cc2)s1
87 | 64 to 65 | OCc1ccccc1CSc1ccccc1
88 | 140 | CCOC(=O)C1=C(COCCNS(=O)(=O)c2ccc(Cl)nc2)NC(C)=C(C(=O)OC)C1c1ccccc1Cl (stereo not drawn)
89 | 156 | CCCCOC(=O)C(CCc1ccccc1)NC1CSC(c2ccsc2)CN(CC(=O)O)C1=O (stereo not drawn)
90 | 155 to 160 | O=C(N[C@H](CO)c1ccccc1)c1[nH]c2ccc(Cl)cc2c1S(=O)(=O)c1ccccc1
91 | > 305 | Cc1noc(C)c1-c1ccnc2[nH]c(-c3cn(C)c4ccc(C(=O)O)cc34)cc12
92 | 144 to 146 | CCC(OCC(F)(F)F)c1ccc(Cl)c2nc3n(c12)CCCN3c1ccc(N(C)C)nc1C (stereo not drawn)
93 | 144 to 147 | CCc1nc(/C=C/c2cn(-c3ccccc3)nc2OCc2ccc(OCc3nc(-c4cccc(-c5nnn[nH]5)c4)oc3C)c(OC)c2)cs1
94 | 246 to 248 | Cc1cc(C)c(Nc2nc(C)ncc2S(=O)(=O)c2ccc(O)cc2)c(C)c1
95 | 132 to 136 | Cc1ccc(Cl)c(C(=O)c2ccc(Cl)cc2)c1Cl
96 | 287 to 288 | O=C1Nc2ccccc2Sc2c1csc2Cl
97 | 72 to 73 | O=Cc1ccc(OCc2ccccc2)c(CCl)n1
98 | 109 to 111 | CCCCN(CCCC)C(=O)CCCC1(C(=O)NCCC)c2ccccc2-c2ccccc21
